Measurements as given in patent publication US20070025960A1 (priority 2003, published 2007).

What was measured:
Vγ2/Vδ2 T cells [1] = system: Vγ2/Vδ2 T cells
Vγ2/Vδ2 T cells [2] = system: Vγ2/Vδ2 T cells; remark: listed apart in the source
γ/δ T cells [3] = conditions: cited from earlier work
γ/δ T cells [4] = conditions: in vivo, iv; cited from earlier work

SMILES: NCCCC(O)(P(=O)(O)O)P(=O)(O)O [Alendronate]
- subset showing intracellular IFNγ (Vγ2/Vδ2 T cells [1]): restricted to the Vγ2/Vδ2 subset
- total CD3+ T cells that produced IFNγ (Vγ2/Vδ2 T cells [2]): 5-10%

SMILES: O=P(O)(O)C(O)(Cc1cccnc1)P(=O)(O)O [Risedronate]
- activity for stimulating γ/δ T cells (γ/δ T cells [3]): highly active

SMILES: NCCC(O)(P(=O)(O)O)P(=O)(O)O [pamidronate, Pamidronate]
- change in γ/δ T cell count after drug infusion (γ/δ T cells [4]): increase in γ/δ T cell count
